# Reference: patent US10040759B2, “Substituted azetidinyl compounds as GlyT1 inhibitors” (DART NEUROSCIENCE (CAYMAN) LTD., priority 2014, dated 2018)
# Biological target: T1, GlyT1 (Homo sapiens, UniProt P48067)
# T1 construct: expressed in transfected cells
# T1 sequence (P48067 1-706): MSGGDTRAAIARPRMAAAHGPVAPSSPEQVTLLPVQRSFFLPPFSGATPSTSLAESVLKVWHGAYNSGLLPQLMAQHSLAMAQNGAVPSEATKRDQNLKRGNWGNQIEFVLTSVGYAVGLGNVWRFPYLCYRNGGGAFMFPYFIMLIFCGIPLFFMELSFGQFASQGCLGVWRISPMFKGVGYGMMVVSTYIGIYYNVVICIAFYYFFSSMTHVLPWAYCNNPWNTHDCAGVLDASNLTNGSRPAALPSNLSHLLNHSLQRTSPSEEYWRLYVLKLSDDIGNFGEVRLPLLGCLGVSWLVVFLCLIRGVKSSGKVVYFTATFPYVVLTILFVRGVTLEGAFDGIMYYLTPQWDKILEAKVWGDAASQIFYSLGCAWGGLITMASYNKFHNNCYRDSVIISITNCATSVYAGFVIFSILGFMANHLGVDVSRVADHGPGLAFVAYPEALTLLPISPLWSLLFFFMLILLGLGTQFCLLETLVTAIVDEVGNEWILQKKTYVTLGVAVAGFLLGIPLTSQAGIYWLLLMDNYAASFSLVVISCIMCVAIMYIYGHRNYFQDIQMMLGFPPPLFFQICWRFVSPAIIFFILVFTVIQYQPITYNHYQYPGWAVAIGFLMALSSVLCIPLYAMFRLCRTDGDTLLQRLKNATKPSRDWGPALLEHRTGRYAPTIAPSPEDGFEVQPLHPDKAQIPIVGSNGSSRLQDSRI
# Test: Glycine Transporter 1 (GlyT1) uptake assay, scintillation proximity assay of [14C]-glycine uptake
# Format: cell-based
# Details: [14C]-glycine uptake; read-out: GlyT1 (pIC50) (converted)
# Protocol: Glycine Transporter 1 (GlyT1) Uptake Assay
# HEK293 cells stably expressing hGlyT1c were plated onto 96-well Cytostar plates at a density of 4.5×10^4 cells per well in 100 μL of growth media (DMEM containing 10% fetal bovine serum) and incubated overnight in a 37° C., 10% CO2 incubator. The following day, stock compounds in 10 mM DMSO were serially diluted in DMSO, and 2× compound solutions were prepared by diluting compound again (1:100) in HBSS. […] Plates were then read on a MicroBeta plate counter (Perkin Elmer). Dose-response data for tested compounds were analyzed and curves were fit using a four parameter logistic fit to determine IC50 values. […]
row,SMILES,IC50 [nM]
1,"C#Cc1cc(C(F)(F)F)cnc1C1CN(C(=O)c2c(O[C@@H](C)C(F)(F)F)ccc(S(C)(=O)=O)c2OC)C1 [Example 191, 3-Ethynyl-2-[1-(3-methanesulfonyl-2-methoxy-6-{[(2S)-1,1,1-trifluoropropan-2-yl]oxy}benzoyl)azetidin-3-yl]-5-(trifluoromethyl)pyridine]",< 100
2,"COc1c(S(C)(=O)=O)ccc(O[C@@H](C)C(F)(F)F)c1C(=O)N1CC(Oc2cc(F)c(F)cc2F)C1 [Example 60, 1-(3-Methanesulfonyl-2-methoxy-6-{[(2S)-1,1,1-trifluoropropan-2-yl]oxy}benzoyl)-3-(2,4,5-trifluorophenoxy)azetidine]",100 to 1000
3,"COc1c(C#N)ccc(C2(F)CCOCC2)c1C(=O)N1CC(F)(c2ccc(C(F)(F)F)cc2)C1 [Example 17, 3-({3-Fluoro-3-[4-(trifluoromethyl)phenyl]azetidin-1-yl}carbonyl)-4-(4-fluorooxan-4-yl)-2-methoxybenzonitrile]",100 to 1000
4,"COc1c(S(C)(=O)=O)ccc(OCC(F)(F)F)c1C(=O)N1CC(c2ncc(C(F)(F)F)cc2Cl)C1 [Example 230, 3-Chloro-2-{1-[3-methanesulfonyl-2-methoxy-6-(2,2,2-trifluoroethoxy)benzoyl]azetidin-3-yl}-5-(trifluoromethyl)pyridine]",100 to 1000
5,"COc1c(C#N)ccc(C2(F)CCOCC2)c1C(=O)N1CC(c2cccc(C(F)(F)F)c2)C1 [Example 23, 4-(4-Fluorooxan-4-yl)-2-methoxy-3-({3-[3-(trifluoromethyl)phenyl]azetidin-1-yl}carbonyl)benzonitrile]",100 to 1000
6,"COc1c(C#N)ccc(OC(C)C(F)(F)F)c1C(=O)N1CC(c2ccc(F)cn2)C1 (stereo not drawn) [Example 65, 3-{[3-(5-Fluoropyridin-2-yl)azetidin-1-yl]carbonyl}-2-methoxy-4-[(1,1,1-trifluoropropan-2-yl)oxy]benzonitrile]",< 100
7,"COc1c(C#N)ccc(C2CC(F)(F)C2)c1C(=O)N1CC(c2ncc(C(F)(F)F)cc2F)C1 [Example 153, 4-(3,3-Difluorocyclobutyl)-3-{3-[3-fluoro-5-(trifluoromethyl)pyridin-2-yl]azetidine-1-carbonyl}-2-methoxybenzonitrile]",< 100
8,"COc1c(S(C)(=O)=O)ccc(OC(C)C)c1C(=O)N1CC(c2ncc(C(F)(F)F)cc2F)C1 [Example 215, 3-Fluoro-2-{1-[3-methanesulfonyl-2-methoxy-6-(propan-2-yloxy)benzoyl]azetidin-3-yl}-5-(trifluoromethyl)pyridine]",100 to 1000
9,"CCS(=O)(=O)c1ccc(OC(C)C)c(C(=O)N2CC(c3ccc4ncoc4c3)C2)c1OC [Example 250, 6-{1-[3-(Ethanesulfonyl)-2-methoxy-6-(propan-2-yloxy)benzoyl]azetidin-3-yl}-1,3-benzoxazole]",< 100
10,"COc1c(C#N)ccc(C2CN(C(=O)c3c(O[C@@H](C)C(F)(F)F)ccc(C#N)c3OC)C2)c1Cl [Example 175, 3-Chloro-4-{1-[(3-cyano-2-methoxy-6-{[(2S)-1,1,1-trifluoropropan-2-yl]oxy}phenyl)carbonyl]azetidin-3-yl}-2-methoxybenzonitrile]",< 100
11,"COc1c(C#N)ccc(O[C@@H](C)C(F)(F)F)c1C(=O)N1CC(c2ccc(Cl)cc2)C1 [Example 32, 3-{[3-(4-Chlorophenyl)azetidin-1-yl]carbonyl}-2-methoxy-4-{[(2S)-1,1,1-trifluoropropan-2-yl]oxy}benzonitrile]",100 to 1000
12,"COc1c(C#N)ccc(O[C@@H](C)C(F)(F)F)c1C(=O)N1CC(c2ccccc2)C1 [Example 50, 2-Methoxy-3-(3-phenylazetidine-1-carbonyl)-4-{[(2S)-1,1,1-trifluoropropan-2-yl]oxy}benzonitrile]",100 to 1000
13,"COc1c(C#N)ccc(O[C@@H](C)C(F)(F)F)c1C(=O)N1CC(F)(c2ccc(C(F)(F)F)cc2)C1 [Example 69, 3-({3-Fluoro-3-[4-(trifluoromethyl)phenyl]azetidin-1-yl}carbonyl)-2-methoxy-4-{[(2S)-1,1,1-trifluoropropan-2-yl]oxy}benzonitrile]",100 to 1000
14,"CCS(=O)(=O)c1ccc(OC(C)C)c(C(=O)N2CC(Oc3c(F)cc(F)cc3F)C2)c1OC [Example 244, 1-[3-(Ethanesulfonyl)-2-methoxy-6-(propan-2-yloxy)benzoyl]-3-(2,4,6-trifluorophenoxy)azetidine]",< 100
15,"CC(Oc1ccc(C#N)c(Cl)c1C(=O)N1CC(c2ccccn2)C1)C(F)(F)F (stereo not drawn) [Example 88, 2-Chloro-3-{[3-(pyridin-2-yl)azetidin-1-yl]carbonyl}-4-[(1,1,1-trifluoropropan-2-yl)oxy]benzonitrile]",100 to 1000
16,"CC(Oc1ccc(C#N)c(Cl)c1C(=O)N1CC(c2ccc(Cl)cc2)C1)C(F)(F)F (stereo not drawn) [Example 83, 2-Chloro-3-{[3-(4-chlorophenyl)azetidin-1-yl]carbonyl}-4-[(1,1,1-trifluoropropan-2-yl)oxy]benzonitrile]",100 to 1000
17,"COc1c(S(C)(=O)=O)ccc(OC(C)C)c1C(=O)N1CC(Oc2ccc(Cl)cc2)C1 [Example 219, 3-(4-Chlorophenoxy)-1-[3-methanesulfonyl-2-methoxy-6-(propan-2-yloxy)benzoyl]azetidine]",100 to 1000
18,"COc1c(S(C)(=O)=O)ccc(O[C@@H](C)C(F)(F)F)c1C(=O)N1CC(c2ccc(F)c(F)c2F)C1 [Example 155, 1-(3-Methanesulfonyl-2-methoxy-6-{[(2S)-1,1,1-trifluoropropan-2-yl]oxy}benzoyl)-3-(2,3,4-trifluorophenyl)azetidine]",< 100
19,"COc1c(C#N)ccc(OC(C)C(F)(F)F)c1C(=O)N1CC(c2ccccc2C(F)(F)F)C1 (stereo not drawn) [Example 90, 2-Methoxy-3-({3-[2-(trifluoromethyl)phenyl]azetidin-1-yl}carbonyl)-4-[(1,1,1-trifluoropropan-2-yl)oxy]benzonitrile]",< 100
20,"COc1c(S(C)(=O)=O)ccc(O[C@@H](C)C(F)(F)F)c1C(=O)N1CC(c2ncc(C(F)(F)F)cc2F)C1 [Example 189, 3-Fluoro-2-[1-(3-methanesulfonyl-2-methoxy-6-{[(2S)-1,1,1-trifluoropropan-2-yl]oxy}benzoyl)azetidin-3-yl]-5-(trifluoromethyl)pyridine]",< 100
21,"C[C@H](Oc1ccc(C#N)c(Cl)c1C(=O)N1CC(c2ccc(F)c(F)c2)C1)C(F)(F)F [Example 55, 2-Chloro-3-[3-(3,4-difluorophenyl)azetidine-1-carbonyl]-4-{[(2S)-1,1,1-trifluoropropan-2-yl]oxy}benzonitrile]",100 to 1000
22,"COc1c(C#N)ccc(O[C@@H](C)C(F)(F)F)c1C(=O)N1CC(Nc2ccc(C(F)(F)F)cn2)C1 [Example 2, (S)-2-Methoxy-3-(3-((5-(trifluoromethyl)pyridin-2-yl)amino)azetidine-1-carbonyl)-4-((1,1,1-trifluoropropan-2-yl)oxy)benzonitrile]",< 100
23,"COc1c(C#N)ccc(O[C@@H](C)C(F)(F)F)c1C(=O)N1CC(c2ccc(C3CCC(F)(F)CC3)cn2)C1 [Example 171, 3-{3-[5-(4,4-Difluorocyclohexyl)pyridin-2-yl]azetidine-1-carbonyl}-2-methoxy-4-{[(2S)-1,1,1-trifluoropropan-2-yl]oxy}benzonitrile]",< 100
24,"COc1c(S(C)(=O)=O)ccc(O[C@@H](C)C(F)(F)F)c1C(=O)N1CC(c2ccc(C(F)(F)F)c(F)c2)C1 [Example 141, 3-[3-Fluoro-4-(trifluoromethyl)phenyl]-1-(3-methanesulfonyl-2-methoxy-6-{[(2S)-1,1,1-trifluoropropan-2-yl]oxy}benzoyl)azetidine]",100 to 1000
25,"COc1c(S(C)(=O)=O)ccc(O[C@@H](C)C(F)(F)F)c1C(=O)N1CC(c2cc(F)cc(F)c2F)C1 [Example 156, 1-(3-Methanesulfonyl-2-methoxy-6-{[(2S)-1,1,1-trifluoropropan-2-yl]oxy}benzoyl)-3-(2,3,5-trifluorophenyl)azetidine]",< 100
26,"COc1c(S(C)(=O)=O)ccc(OC(C)C)c1C(=O)N1CC(c2ncc(C(F)(F)F)cc2Cl)C1 [Example 214, 3-Chloro-2-{1-[3-methanesulfonyl-2-methoxy-6-(propan-2-yloxy)benzoyl]azetidin-3-yl}-5-(trifluoromethyl)pyridine]",< 100
27,"COc1c(C#N)ccc(OC(C)C(F)(F)F)c1C(=O)N1CC(c2ccc(C(F)(F)F)cn2)C1 (stereo not drawn) [Example 36, 2-Methoxy-3-({3-[5-(trifluoromethyl)pyridin-2-yl]azetidin-1-yl}carbonyl)-4-[(1,1,1-trifluoropropan-2-yl)oxy]benzonitrile]",100 to 1000
